Measured values taken from ChEMBL document CHEMBL1148078, “Isolation of Spongosine and 2'-Deoxyspongosine from a Western Australian Sponge of the Order Hadromerida (Tethyidae)” (J Nat Prod, 1994).
The source made the active and inactive calls.

Columns and labels:
Assay type in all cases: functional, organism-based
[1] = tested on: Staphylococcus aureus; assay: Antimicrobial activity against Staphylococcus aureus at 200 ug/disk by disk diffusion assay
[2] = tested on: Pseudomonas aeruginosa; assay: Antimicrobial activity against Pseudomonas aeruginosa at 200 ug/disk by disk diffusion assay
[3] = tested on: Candida albicans; assay: Antimicrobial activity against Candida albicans at 200 ug/disk by disk diffusion assay
[4] = tested on: Escherichia coli; assay: Antimicrobial activity against Escherichia coli at 200 ug/disk by disk diffusion assay
[5] = tested on: Saccharomyces pastorianus; assay: Antimicrobial activity against Saccharomyces carlsbergensis at 200 ug/disk by disk diffusion assay

Measured: Activity

COc1nc(N)c2ncn([C@H]3C[C@H](O)[C@@H](CO)O3)c2n1
inactive: all assays above

COc1nc(N)c2ncn([C@@H]3O[C@H](CO)[C@@H](O)[C@H]3O)c2n1
inactive: all assays above
